In this test the target is T1, PPARγ (peroxisome proliferator-activated receptor-gamma) (Homo sapiens, UniProt P37231).
T1 construct: gene PPARG; human PPARγ protein with a His tag (HY-P7999, MCE)
T1 sequence (P37231 1-505): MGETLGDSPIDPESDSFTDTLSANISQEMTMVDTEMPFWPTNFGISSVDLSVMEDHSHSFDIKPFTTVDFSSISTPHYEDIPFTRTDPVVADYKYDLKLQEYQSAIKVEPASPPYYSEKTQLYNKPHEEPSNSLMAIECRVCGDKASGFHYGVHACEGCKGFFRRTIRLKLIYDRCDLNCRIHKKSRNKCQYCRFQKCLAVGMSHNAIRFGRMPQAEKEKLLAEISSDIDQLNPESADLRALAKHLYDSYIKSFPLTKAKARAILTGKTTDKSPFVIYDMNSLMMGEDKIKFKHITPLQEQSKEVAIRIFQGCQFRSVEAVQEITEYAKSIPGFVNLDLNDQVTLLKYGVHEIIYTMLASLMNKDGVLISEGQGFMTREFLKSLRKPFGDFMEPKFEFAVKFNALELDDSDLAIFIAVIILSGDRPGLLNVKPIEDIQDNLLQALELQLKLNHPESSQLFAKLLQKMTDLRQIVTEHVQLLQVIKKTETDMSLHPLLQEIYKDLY
In words: bio-layer interferometry (Octet K2, NTA biosensor, immobilized His-tagged PPARγ). Type of test: binding.

The compound `COc1cc(O[C@@H]2O[C@H](CO)[C@@H](O)[C@H](O)[C@H]2O)c(-c2oc3cc(OC)c(OC)c(O)c3c(=O)c2OC)cc1O` [CA1, Chrysosplenoside I] displayed a dissociation constant Kd of 75.3 µM.

With Chrysosplenoside A [CA2], binding was put at a Kd of 32.4 µM.

The record behind these values is article PMC11749787, “Natural flavonoid glycosides Chrysosplenosides I & A rejuvenate intestinal stem cell aging via activation of PPARγ signaling” (Life Medicine, 2024).
